Results published in US20240383900A1, “SUBSTITUTED PYRAZOLO [1,5-A]PYRIMIDINE-7-AMINE COMPOUNDS AS CDK INHIBITORS AND THEIR THERAPEUTIC USE” (Carrick Therapeutics Limited, priority 2021, published 2024).
pIC50: −log10 of the molar value. Like-named read-outs stand apart in the source and are kept apart here.

Assays:
Cyclin K = Cyclin K (Homo sapiens (Human), UniProt O75909); assay: Western blotting analysis of Cyclin K depletion in cell culture; type: cell-based; conditions: A673 cells, 1 μM test compound, 2 hours, absence and presence of 10 μM MLN4924
Method: A673 cells were incubated for 2 hours with of 1 μM compound in presence or in absence of 10 μM of the NAE (NEDD8 activating enzyme) inhibitor MLN4924 (Cell Signalling Technologies). Cells were washed 2× with cold Phosphate Buffered Saline (PBS, Sigma Aldrich), followed by the addition of lysis buffer for 15 minutes on ice before harvesting and centrifugation.
Protein content in the cell lysate was assessed by BCA assay (Thermo Fisher). Samples were then prepared with 4× Laemmlli Buffer (Bio-Rad) and heated to 95° C. for 5 minutes. Each sample was loaded onto a Mini-PROTEAN TGX Stain Free Gel (Bio-Rad) at 50 μg protein/well. SDS-PAGE was performed and then protein was transferred onto a PVDF membrane using a Trans-Blot® Turbo™ Midi PVDF Transfer Pack (Bio-Rad. Membranes were blocked in TBS-T (Invitrogen), 5% (w/v) milk powder (Marvel) overnight at 4° C.
Membranes were incubated with anti-CCNK antibody (rabbit) primary antibody (Abcam) and anti-GAPDH antibody (rabbit) in TBS-T for 2 hours. Membranes were then washed three times with TBS-T, before incubation secondary goat anti-rabbit HRP antibody (Cell Signalling Technologies) followed by 3× washing in TBS-T. Blots were imaged using a Chemidoc imager (Bio-Rad). Cyclin K depletion was measured as the observable drop in band intensity in compound treated samples relative to proteasome-inhibitor treated samples.
Cyclin K degradation was evaluated by Western blotting for cyclin K in A673 cells exposed to 1 μM test compound for 2 hours in the absence and presence of 10 μM MLN4924 (to inhibit proteosome activity).

A673 cells [1] = assay: Cytotoxicity in A673 cells (Cell Titer Glo viability); type: cell-based; conditions: for IC50 / pIC50: Homo sapiens; for IC50: A673, read-out: Cellular Potency IC50 (nM) (in A673 cells); for pIC50: A673 cells, 72 hours, read-out: A673 IC50; for Ratio of Biochemical Potency:Cellular Potency: CDK12 IC50 / A673 IC50
In short: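 Cells plated at 1.2×10^5 per well in DMEM+10% FBS, 24 h, then compound series ± MLN4924 (30 nM final) in 0.1% DMSO for 72 h. Viability by Cell Titer Glo luminescence, normalised to vehicle (100%) and 0.1% Triton x-100 (0%); MLN4924 curves normalised to MLN4924-treated controls.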

A673 cells [2] = assay: A673 cytotoxic potency shift in the presence of MLN4924 (cyclin K degrader activity); type: cell-based; conditions: for Cyclin K Degrader Activity (A673 potency shift + MLN4924): 30 nM MLN4924, 72 hours
Method: Inhibition of cell viability by test compounds was assessed in A673 cells (ATCC CRL-1598) and the compound mode of action was attributed to a “molecular-glue”/cyclin K-degradation mechanism by probing for a loss of compound potency in the presence of the NEDD8-activating enzyme inhibitor, MLN4924.
Cells were plated in 96-well plates at a density of […] viable cells per well in 200 μL fully supplemented growth medium (DMEM+10% heat inactivated foetal bovine serum) and incubated for 24 hours in standard tissue culture conditions. Compounds, including MLN4924, were solubilised in DMSO and then diluted in fully supplemented growth medium at 2× their final assay concentration such that the final DMSO concentration was 0.1%. Growth medium in the assay plates was replaced with 50 μL of growth medium containing 2×MLN4924 (final assay concentration: 30 nM, where tested) or vehicle only and 50 μL of growth medium containing a 2× compound concentration series or vehicle only such that each compound was at 1× final assay concentration in 100 μL.
Cells were then incubated for 72 hours in standard tissue culture conditions before viability was assessed using 50 μL Cell Titer Glo reagent (Promega) per well and luminescence measured on an EnVision plate reader. Data were normalised to vehicle control (100%) and cells treated with 0.1% Triton x-100 for 1 hour before viability measurement (0%; full cell kill). IC50 values were determined using a semi-logistic curve fit with parameters “top” fixed at 100% and “bottom” at or below 0%. Viability curves generated in the presence of MLN4924 were normalised and fixed to controls treated with MLN4924.

Human CDK12 wt/CycK = Human CDK12 wt/CycK (Homo sapiens (Human), UniProt Q9NYV4); assay: Radiometric protein kinase assay (33PanQinase Activity Assay), CDK12; type: biochemical; conditions: for CDK7/CDK12: ratio of CDK7 IC50 to CDK12 IC50, greater than 1 indicates selectivity for CDK12
In short: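 Radiometric 33P assay: ATP, test compound (in 10% DMSO) and premixed substrate/enzyme incubated 60 min at 30 °C, stopped with 2% H3PO4. 33Pi incorporation counted by scintillation; least-squares curve fit.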

Human CDK7/CycH/MAT1 = Human CDK7/CycH/MAT1 (Homo sapiens (Human), UniProt P50613); assay: Radiometric protein kinase assay (33PanQinase Activity Assay), CDK7; type: biochemical; conditions: ATP 3 μM
[3] = ATP 0.3 μM, read-out: CDK12 IC50
[4] = read-out: CKD12 Biochemical Potency IC50

Sequence of Human CDK12 wt/CycK (Q9NYV4 whole entry): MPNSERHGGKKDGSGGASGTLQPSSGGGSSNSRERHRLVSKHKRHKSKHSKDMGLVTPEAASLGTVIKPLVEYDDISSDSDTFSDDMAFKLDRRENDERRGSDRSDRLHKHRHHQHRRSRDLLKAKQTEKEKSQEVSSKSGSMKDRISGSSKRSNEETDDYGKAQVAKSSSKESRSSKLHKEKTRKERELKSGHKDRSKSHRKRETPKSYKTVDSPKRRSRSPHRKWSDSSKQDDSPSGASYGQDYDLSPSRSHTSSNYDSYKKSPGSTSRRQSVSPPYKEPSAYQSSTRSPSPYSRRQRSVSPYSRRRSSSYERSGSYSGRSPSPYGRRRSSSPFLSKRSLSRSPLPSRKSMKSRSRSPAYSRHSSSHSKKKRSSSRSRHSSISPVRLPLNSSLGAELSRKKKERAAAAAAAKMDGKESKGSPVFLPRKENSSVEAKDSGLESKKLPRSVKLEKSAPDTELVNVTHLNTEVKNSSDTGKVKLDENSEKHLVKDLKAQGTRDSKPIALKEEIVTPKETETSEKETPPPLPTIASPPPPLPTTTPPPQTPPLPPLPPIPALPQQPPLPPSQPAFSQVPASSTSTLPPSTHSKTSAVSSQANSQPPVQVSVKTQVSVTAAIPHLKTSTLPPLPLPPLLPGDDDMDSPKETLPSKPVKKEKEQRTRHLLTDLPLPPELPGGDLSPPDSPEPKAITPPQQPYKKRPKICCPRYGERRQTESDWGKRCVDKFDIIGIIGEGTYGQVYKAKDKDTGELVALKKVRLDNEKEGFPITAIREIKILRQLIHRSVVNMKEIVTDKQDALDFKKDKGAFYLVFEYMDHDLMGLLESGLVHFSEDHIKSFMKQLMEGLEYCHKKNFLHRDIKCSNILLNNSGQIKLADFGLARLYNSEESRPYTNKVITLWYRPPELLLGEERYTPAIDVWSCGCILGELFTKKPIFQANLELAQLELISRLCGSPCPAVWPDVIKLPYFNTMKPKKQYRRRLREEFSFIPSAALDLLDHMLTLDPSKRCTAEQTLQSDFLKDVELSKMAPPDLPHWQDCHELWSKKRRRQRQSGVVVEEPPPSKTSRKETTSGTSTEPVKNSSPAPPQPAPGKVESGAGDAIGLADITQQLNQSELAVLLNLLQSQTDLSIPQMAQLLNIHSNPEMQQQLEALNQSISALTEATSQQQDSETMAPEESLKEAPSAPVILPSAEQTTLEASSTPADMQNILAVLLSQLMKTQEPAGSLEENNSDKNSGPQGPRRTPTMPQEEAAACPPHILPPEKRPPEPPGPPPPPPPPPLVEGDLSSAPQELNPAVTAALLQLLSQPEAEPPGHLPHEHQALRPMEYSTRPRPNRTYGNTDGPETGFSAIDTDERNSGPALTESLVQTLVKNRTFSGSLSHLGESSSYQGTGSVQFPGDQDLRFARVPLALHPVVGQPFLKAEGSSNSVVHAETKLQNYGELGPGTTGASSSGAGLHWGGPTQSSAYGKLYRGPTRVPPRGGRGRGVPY
Sequence of Human CDK12 wt/CycK (O75909 whole entry partner): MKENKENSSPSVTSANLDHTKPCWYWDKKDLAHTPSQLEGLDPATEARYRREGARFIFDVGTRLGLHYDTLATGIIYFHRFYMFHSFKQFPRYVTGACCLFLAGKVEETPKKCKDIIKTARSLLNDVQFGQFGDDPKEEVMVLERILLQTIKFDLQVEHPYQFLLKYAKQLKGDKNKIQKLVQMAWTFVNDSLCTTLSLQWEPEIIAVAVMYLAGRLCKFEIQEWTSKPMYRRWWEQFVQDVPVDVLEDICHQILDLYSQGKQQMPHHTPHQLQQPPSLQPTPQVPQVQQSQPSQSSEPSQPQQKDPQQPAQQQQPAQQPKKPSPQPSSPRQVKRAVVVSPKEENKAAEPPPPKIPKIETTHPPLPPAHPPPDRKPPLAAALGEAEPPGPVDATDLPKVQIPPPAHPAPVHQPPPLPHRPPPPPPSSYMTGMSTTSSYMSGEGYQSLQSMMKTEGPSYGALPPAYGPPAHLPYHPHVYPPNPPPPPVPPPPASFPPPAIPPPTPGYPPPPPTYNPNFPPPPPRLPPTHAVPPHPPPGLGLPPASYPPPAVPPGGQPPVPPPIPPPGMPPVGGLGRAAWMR
Sequence of Human CDK7/CycH/MAT1 (P50613 whole entry): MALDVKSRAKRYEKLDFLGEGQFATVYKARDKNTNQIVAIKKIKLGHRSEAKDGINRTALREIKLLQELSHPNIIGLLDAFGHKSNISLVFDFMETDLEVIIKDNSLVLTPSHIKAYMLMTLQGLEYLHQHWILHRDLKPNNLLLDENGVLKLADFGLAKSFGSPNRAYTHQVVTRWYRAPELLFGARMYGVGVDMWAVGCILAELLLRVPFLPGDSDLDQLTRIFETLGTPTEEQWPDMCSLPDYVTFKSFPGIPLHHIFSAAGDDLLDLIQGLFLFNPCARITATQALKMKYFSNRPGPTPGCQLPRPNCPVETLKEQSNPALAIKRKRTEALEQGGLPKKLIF
Sequence of Human CDK7/CycH/MAT1 (P51946 whole entry partner): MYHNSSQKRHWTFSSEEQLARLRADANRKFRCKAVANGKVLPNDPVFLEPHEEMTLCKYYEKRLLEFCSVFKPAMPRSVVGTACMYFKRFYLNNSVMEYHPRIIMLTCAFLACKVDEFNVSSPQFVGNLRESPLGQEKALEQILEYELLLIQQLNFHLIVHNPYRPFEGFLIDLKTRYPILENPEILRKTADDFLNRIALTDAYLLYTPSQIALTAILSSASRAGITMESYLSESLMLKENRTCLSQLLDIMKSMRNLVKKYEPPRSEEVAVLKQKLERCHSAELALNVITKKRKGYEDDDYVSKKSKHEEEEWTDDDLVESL
Sequence of Human CDK7/CycH/MAT1 (P51948 whole entry partner): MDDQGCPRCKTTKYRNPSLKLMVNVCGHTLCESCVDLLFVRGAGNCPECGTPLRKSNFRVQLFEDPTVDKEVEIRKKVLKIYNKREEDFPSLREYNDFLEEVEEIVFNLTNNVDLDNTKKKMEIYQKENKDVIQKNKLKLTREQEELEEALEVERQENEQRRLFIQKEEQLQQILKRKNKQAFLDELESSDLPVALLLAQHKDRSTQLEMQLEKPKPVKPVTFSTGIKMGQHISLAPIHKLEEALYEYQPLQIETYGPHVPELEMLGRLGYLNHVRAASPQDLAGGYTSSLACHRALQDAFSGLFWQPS

Compound	Cyclin K degradation by Western blotting (Cyclin K)	IC50 (A673 cells [1])	pIC50 (A673 cells [1])	Change of cytotoxic potency in the presence of MLN4924 (A673 cells [2]; 72 hours, presence and absence of 30 nM MLN4924)	pIC50 (Human CDK12 wt/CycK; [3])	CDK7/CDK12 (Human CDK12 wt/CycK)	pIC50 (Human CDK12 wt/CycK; [4])	Ratio of Biochemical Potency:Cellular Potency (A673 cells [1])	Cyclin K Degrader Activity (A673 potency shift + MLN4924) (A673 cells [2])	pIC50 (Human CDK7/CycH/MAT1)
CC[C@H](CO)Nc1nc(NCc2ccc(-c3ccccn3)cc2)c2ncn(C(C)C)c2n1 [CR8, reference compound]	did cause proteosomal dependent degradation of Cyclin K	84.5 nM	7.07	a decrease in potency						
c1ccc(-c2ccc(CNc3cc(O[C@H]4CCCNC4)nc4c(C5CC5)cnn34)cc2)nc1 [PPA-064]		1.2 nM	8.92		7.74	14.9	7.74	15.00	+++ (>5 fold change.)	6.57
c1ccc(-c2ccc(CNc3cc(O[C@H]4CCNC4)nc4c(C5CC5)cnn34)cc2)nc1 [PPA-065]		3.2 nM	8.49		7.54	9.8	7.54	9.06	+++ (>5 fold change.)	6.55
CCc1cnn2c(NCc3ccc(-c4ccccc4)cc3F)cc(NC[C@H]3CCNC[C@@H]3O)nc12 [PPA-069]		10.5 nM	7.98		6.91	2.2	6.91	11.62	++ (>2 and ≤5 fold change.)	6.57
N#Cc1cnn2c(NCc3ccc(-c4ccccc4)cc3F)cc(NC[C@H]3CCNC[C@@H]3O)nc12 [PPA-070]		5.3 nM	8.28		6.97	5.3	6.97	20.19	+++ (>5 fold change.)	6.25
N#Cc1cnn2c(NCc3ccc(-c4ccccc4)cc3F)cc(N[C@H]3CCNC3)nc12 [PPA-071]		1.4 nM	8.85		7.40	38.8	7.40	28.57	+++ (>5 fold change.)	5.81
Fc1cc(-c2ccccn2)ccc1CNc1cc(N[C@H]2CCNC2)nc2c(C3CC3)cnn12 [PPA-072]		0.8 nM	9.10		7.47	29.4	7.47	42.50	+++ (>5 fold change.)	6.00
c1ccc(-c2ccc(CNc3cc(N4CC5CC(C4)N5)nc4c(C5CC5)cnn34)cc2)nc1 [PPA-080]		12.6 nM	7.90		6.82	8.0	6.82	12.06	+++ (>5 fold change.)	5.92
N#Cc1cnn2c(NCc3ccc(-c4ccccc4)cc3)cc(N[C@H]3CCNC3)nc12 [PPA-085]		1.3 nM	8.89		7.64	29.3	7.64	17.69	++ (>2 and ≤5 fold change.)	6.17
N#Cc1cnn2c(NCc3ccc(-c4ccccn4)cc3)cc(N[C@H]3CCNC3)nc12 [PPA-086]		0.9 nM	9.05		7.96	37.9	7.96	12.22	+++ (>5 fold change.)	6.38
CO[C@H]1CNCC[C@@H]1CNc1cc(NCc2ccc(-c3ccccn3)cc2)n2ncc(C3CC3)c2n1 [PPA-087]		8.7 nM	8.06		6.30	3.2	6.30	57.82	+++ (>5 fold change.)	5.79
C1=C(c2cc(NCc3ccc(-c4ccccn4)cc3)n3ncc(C4CC4)c3n2)CNCC1 [PPA-088]		2.5 nM	8.60		7.22	12.7	7.22	24.00	+++ (>5 fold change.)	6.12
c1cnc(-c2ccc(CNc3cc(N[C@H]4CCCNC4)nc4c(C5CC5)cnn34)cc2)nc1 [PPA-089]		1.9 nM	8.47		7.55	9.8	7.55	14.74	+++ (>5 fold change.)	6.56
c1cnc(-c2ccc(CNc3cc(N[C@H]4CCNC4)nc4c(C5CC5)cnn34)cc2)nc1 [PPA-090]		4.7 nM	8.28		7.64	18.2	7.64	4.89	+++ (>5 fold change.)	6.38
c1cnn(-c2ccc(CNc3cc(N[C@H]4CCNC4)nc4c(C5CC5)cnn34)cc2)c1 [PPA-091]		7.6 nM	7.99		6.42	8.0	6.42	50.26	+++ (>5 fold change.)	5.51
N#Cc1cnn2c(NCc3ccc(-c4ccccn4)cc3)cc(N[C@H]3CCCNC3)nc12 [PPA-092]		0.4 nM	9.00		7.89	18.1	7.89	32.50	+++ (>5 fold change.)	6.63
Clc1cnn2c(NCc3ccc(-c4ccccn4)cc3)cc(N[C@H]3CCCNC3)nc12 [PPA-093]		3.2 nM	8.77		7.51	7.2	7.51	9.69	++ (>2 and ≤5 fold change.)	6.65
CN(C)C/C=C/C(=O)Nc1ccc(C(=O)N2CCC[C@@H](Nc3ncc(Cl)c(-c4c[nH]c5ccccc45)n3)C2)cc1 [THZ-531, reference compound]	no protesomal dependent Cyclin K degradation	210 nM					6.80	0.74	− (≤1 fold change.)	
